Measurements as given in US20160244436A1, “NOVEL FUNCTIONALIZED 5-(PHENOXYMETHYL)-1,3-DIOXANE ANALOGS EXHIBITING CYTOCHROME P450 INHIBITION AND THEIR METHOD OF USE” (CORTENDO AB (PUBL), priority 2013, published 2016).

Experiments:
recombinant CYP-11 = target: T1, recombinant CYP-11 (Homo sapiens, UniProt P15538); assay: Cyp11 assay: AD293 cells over-expressing recombinant CYP-11, cortisol formation from 11-deoxycortisol by LC/MS; assay type: cell-based
T1 construct: expressed in transfected cells; host or cells: AD293
T1 sequence (P15538 25-503): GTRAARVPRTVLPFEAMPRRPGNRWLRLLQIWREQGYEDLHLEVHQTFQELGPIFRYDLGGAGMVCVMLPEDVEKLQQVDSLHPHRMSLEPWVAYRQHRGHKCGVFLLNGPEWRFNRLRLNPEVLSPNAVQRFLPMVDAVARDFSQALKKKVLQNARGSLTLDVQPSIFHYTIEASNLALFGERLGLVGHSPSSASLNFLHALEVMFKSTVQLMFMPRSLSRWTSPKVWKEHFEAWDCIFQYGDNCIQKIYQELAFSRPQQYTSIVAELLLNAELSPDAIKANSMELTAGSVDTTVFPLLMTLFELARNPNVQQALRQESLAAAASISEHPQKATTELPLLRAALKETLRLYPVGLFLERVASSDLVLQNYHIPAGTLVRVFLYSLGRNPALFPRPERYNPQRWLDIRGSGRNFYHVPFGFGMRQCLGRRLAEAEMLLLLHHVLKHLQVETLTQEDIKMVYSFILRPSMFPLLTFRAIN
Procedure: Cyp11 assay protocol: AD293 cells that stably over-express recombinant CYP-11 were seeded in 96 well plates coated with poly D-lysine (15,000 cell per well) and incubated at 37° C. for 24 hours in Dulbecco's Modified Eagle Medium (DMEM) with Fetal Bovine Serum (FBS) that is stripped of hormones by charcoal treatment. The media is then removed, the cells are washed once with Phosphate buffer saline solution, and 50 μL Dulbecco's Modified Eagle Medium (DMEM) with Fetal Bovine Serum (FBS) that is stripped of hormones by charcoal treatment is added. Compounds of the disclosure are then added to the wells in eight concentration spanning 10 μM to 4.5 nM, and the plates are incubated for an additional 60 minutes at 37° C. 11-deoxycortisol is then added (2.0 μM) and the plates are incubated for an additional 12 hours at 37° C. After incubation, 50 uL of the supernatant (medium) is transferred into a fresh plate and 150 uL of an acetonitrile solution containing 200 ng/ml of Telmisartan is added. The sample is mixed and then placed in a centrifuge at 2000 rpm for 5 minutes. 100 uL of the supernatant is transferred into a fresh 96 well deep well plate, 100 uL of 1:1 methanol:water was added, the solution was mixed and then analyzed by LC/MS for the presence of cortisol using an Agilent 1200 RRLC/ABSCIEX API4000 LC-MS or Shimadzu Prominance/ABSCIEX API4000 LC-MS to determine IC5os of the compounds of the disclosure.

Cyp19 = target: T2, Cyp19 (Homo sapiens, UniProt P11511); assay: Cyp19 off-target counter screen; assay type: biochemical; conditions: off-target enzyme
T2 sequence (P11511 1-503): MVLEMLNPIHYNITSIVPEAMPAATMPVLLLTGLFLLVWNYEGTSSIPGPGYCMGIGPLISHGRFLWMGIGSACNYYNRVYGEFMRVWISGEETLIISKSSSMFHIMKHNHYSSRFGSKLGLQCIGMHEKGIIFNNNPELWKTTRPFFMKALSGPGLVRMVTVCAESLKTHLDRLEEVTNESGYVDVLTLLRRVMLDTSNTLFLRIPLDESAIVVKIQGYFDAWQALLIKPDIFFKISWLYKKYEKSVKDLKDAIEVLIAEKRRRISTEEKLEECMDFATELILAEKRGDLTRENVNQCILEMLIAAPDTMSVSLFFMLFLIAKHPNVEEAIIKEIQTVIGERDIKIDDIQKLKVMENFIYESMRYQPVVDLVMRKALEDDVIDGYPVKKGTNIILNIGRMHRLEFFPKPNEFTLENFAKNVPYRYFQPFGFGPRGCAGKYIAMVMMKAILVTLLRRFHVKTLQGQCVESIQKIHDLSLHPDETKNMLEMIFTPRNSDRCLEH

Cyp3A4 = Cyp3A4 (Homo sapiens, UniProt P08684); assay: Cyp3A4 off-target counter screen; assay type: in vitro ADME; conditions: off-target enzyme
Sequence of Cyp3A4 (P08684 whole entry): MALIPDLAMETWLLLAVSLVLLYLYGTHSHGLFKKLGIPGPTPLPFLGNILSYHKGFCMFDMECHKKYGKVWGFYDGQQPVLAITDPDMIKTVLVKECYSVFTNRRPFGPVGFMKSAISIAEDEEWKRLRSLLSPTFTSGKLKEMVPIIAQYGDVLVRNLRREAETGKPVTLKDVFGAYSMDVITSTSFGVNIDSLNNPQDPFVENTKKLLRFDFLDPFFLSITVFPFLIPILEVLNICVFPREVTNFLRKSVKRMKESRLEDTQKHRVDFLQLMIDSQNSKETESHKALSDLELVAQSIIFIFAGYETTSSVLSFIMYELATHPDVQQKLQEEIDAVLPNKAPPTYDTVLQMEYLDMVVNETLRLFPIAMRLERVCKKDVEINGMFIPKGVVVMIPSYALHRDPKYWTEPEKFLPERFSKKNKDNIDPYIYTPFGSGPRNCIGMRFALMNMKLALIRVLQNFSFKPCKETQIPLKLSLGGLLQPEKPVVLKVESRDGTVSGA

[1] = tested on: Bile Acid (Cyp7A surrogate); assay: Bile acid secretion / synthesis inhibition (Cyp7A surrogate); assay type: cell-based

IC50 (recombinant CYP-11): 12 nM | IC50 (Cyp19): 350 nM | IC50 (Cyp3A4): 109 nM | IC50 [1]: 880 nM
SMILES: CC(=O)N1CCN(c2ccc(CO[C@H]3CO[C@](Cn4ccnc4)(c4ccc(Cl)cc4Cl)OC3)cc2)CC1 [drawing 112]
